Biological target: T1, Epidermal Growth Factor Receptor (EGFR) (Homo sapiens, UniProt P00533)
T1 construct: purchased Sigma-Aldrich E3641
Test: EGFR kinase assay (TR-FRET)
Format: biochemical
Details: 10 μM ATP; read-out: EGFR kinase inhibition IC50
Description: EGFR inhibitory activity of compounds of the present invention was quantified employing the TR-FRET based EGFR assay as described in the following paragraphs.
Epidermal Growth Factor Receptor (EGFR) affinity purified from human carcinoma A431 cells (Sigma-Aldrich, # E3641) was used as kinase. As substrate for the kinase reaction the biotinylated peptide biotin-Ahx-[…] (SEQ ID NO: 8, C-terminus in amid form) was used which can be purchased e.g. form the company Biosyntan GmbH (Berlin-Buch, Germany).
For the assay 50 nL of a 100 fold concentrated solution of the test compound in DMSO was pipetted into a black low volume 384 well microtiter plate (Greiner Bio-One, Frickenhausen, Germany), 2 μL of a solution of EGFR in aqueous assay buffer [50 mM Hepes/HCl pH 7.0, 1 mM MgCl2, 5 mM MnCl2, 0.5 mM activated sodium ortho-vanadate, 0.005% (v/v) Tween-20]were added and the mixture was incubated for […] at 22° C. to allow pre-binding of the test compounds to the enzyme before the start of the kinase reaction. Then the kinase reaction was started by the addition of 3 μL of a solution of adenosine-tri-phosphate (ATP, 16.7 μM=>final conc. in the 5 μL assay volume is 10 μM) and substrate (1.67 μM =>final conc. in the 5 μL assay volume is 1μM) in assay buffer and the resulting mixture was incubated for a reaction time of […] at 22° C. The concentration of EGFR was adjusted depending of the activity of the enzyme lot and was chosen appropriate to have the assay in the linear range, typical concentration were about 3 U/ml. The reaction was stopped by the addition of 5 μl of a solution of HTRF detection reagents (0.1 μM streptavidine-XL665 [Cis Biointernational]and 1 nM PT66-Tb-Cryptate, an terbium-cryptate labelled anti-phospho-tyrosine antibody from Cis Biointernational [instead of the PT66-Tb-cryptate PT66-Eu-Chelate from Perkin Elmer can also be used]) in an aqueous EDTA-solution (80 mM EDTA, 0.2% (w/v) bovine serum albumin in 50 mM HEPES pH 7.5).
The resulting mixture was incubated 1 h at 22° C. to allow the binding of the biotinylated phosphorylated peptide to the streptavidine-XL665 and the PT66-Eu-Chelate. Subsequently the amount of phosphorylated substrate was evaluated by measurement of the resonance energy transfer from the PT66-Tb-Cryptate to the streptavidine-XL665. Therefore, the fluorescence emissions at 620 nm and 665 nm after excitation at 337 nm were measured in a HTRF reader, e.g. a Pherastar (BMG Labtechnologies, Offenburg, Germany) or a Viewlux (Perkin-Elmer). The ratio of the emissions at 665 nm and at […] was taken as the measure for the amount of phosphorylated substrate.

T1 sequence (P00533 25-1210): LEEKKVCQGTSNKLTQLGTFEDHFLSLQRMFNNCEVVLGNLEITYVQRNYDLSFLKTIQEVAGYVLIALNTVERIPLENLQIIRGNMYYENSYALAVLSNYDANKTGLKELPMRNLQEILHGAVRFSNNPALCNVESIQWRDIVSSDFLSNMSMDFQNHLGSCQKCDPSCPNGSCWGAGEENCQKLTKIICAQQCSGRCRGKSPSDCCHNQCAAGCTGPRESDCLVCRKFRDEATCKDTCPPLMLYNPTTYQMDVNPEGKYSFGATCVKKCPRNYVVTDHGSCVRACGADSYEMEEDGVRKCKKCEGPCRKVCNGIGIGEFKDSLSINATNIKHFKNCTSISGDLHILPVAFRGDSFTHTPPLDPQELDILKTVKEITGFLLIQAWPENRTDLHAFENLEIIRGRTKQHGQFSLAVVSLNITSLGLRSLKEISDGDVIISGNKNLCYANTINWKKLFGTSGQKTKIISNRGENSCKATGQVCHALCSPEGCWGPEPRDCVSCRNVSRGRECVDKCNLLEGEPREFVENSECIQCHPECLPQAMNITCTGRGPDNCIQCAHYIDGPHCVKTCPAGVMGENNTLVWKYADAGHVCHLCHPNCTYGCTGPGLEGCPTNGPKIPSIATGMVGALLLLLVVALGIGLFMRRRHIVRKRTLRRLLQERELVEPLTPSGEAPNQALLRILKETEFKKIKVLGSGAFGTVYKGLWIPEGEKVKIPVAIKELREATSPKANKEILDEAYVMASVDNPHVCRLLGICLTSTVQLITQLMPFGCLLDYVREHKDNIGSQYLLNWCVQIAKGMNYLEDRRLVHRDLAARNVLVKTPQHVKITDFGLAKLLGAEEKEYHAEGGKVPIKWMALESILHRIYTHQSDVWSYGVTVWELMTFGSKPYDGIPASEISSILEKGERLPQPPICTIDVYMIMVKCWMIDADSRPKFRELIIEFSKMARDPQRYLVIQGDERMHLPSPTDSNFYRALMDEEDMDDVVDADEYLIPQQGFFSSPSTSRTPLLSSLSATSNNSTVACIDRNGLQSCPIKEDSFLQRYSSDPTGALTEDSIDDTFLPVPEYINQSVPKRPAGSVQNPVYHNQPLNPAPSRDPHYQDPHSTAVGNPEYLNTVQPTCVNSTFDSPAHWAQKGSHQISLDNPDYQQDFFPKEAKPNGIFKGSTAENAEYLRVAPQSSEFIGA

Row | SMILES | IC50 [µM]
1 | Cc1nc(N[C@H](C)c2cccc(Br)c2)c2cc(Oc3cccc(C4=NCCN4C)c3)ncc2n1 [Example 41, N-[(1R)-1-(3-bromophenyl)ethyl]-2-methyl-6-[3-(1-methyl-4,5-dihydro-1H-imidazol-2-yl)phenoxy]pyrido[3,4-d]pyrimidin-4-amine] | > 20
2 | Cc1nc(N[C@H](C)c2cccc(Br)c2)c2cc(N3CCN(Cc4cccnc4)CC3)ncc2n1 [Example 43, N-[(1R)-1-(3-bromophenyl)ethyl]-2-methyl-6-[4-(pyridin-3-ylmethyl)piperazin-1-yl]pyrido[3,4-d]pyrimidin-4-amine] | > 20
3 | CC(=O)NCCNc1cc2c(N[C@H](C)c3cccc(Br)c3)nc(C)nc2cn1 [Example 44, N-{2-[(4-{[(1R)-1-(3-bromophenyl)ethyl]amino}-2-methylpyrido[3,4-d]pyrimidin-6-yl)amino]ethyl}acetamide] | > 20
4 | Cc1nc(N[C@H](C)c2cccc(Br)c2)c2cc(N3CCNC(=O)C3)ncc2n1 [Example 45] | > 20
5 | Cc1nc(N[C@H](C)c2cccc(Br)c2)c2cc(NC3CCOCC3)ncc2n1 [Example 46] | > 20
6 | Cc1nc(NC(C)c2ccc(-c3ccccc3CN(C)C)s2)c2cc(NCCN3CCOCC3)ncc2n1 (centres unmarked) [Example 48] | > 20
7 | Cc1nc(N[C@H](C)c2cccc(Br)c2)c2cc(NCCn3cccn3)ncc2n1 [Example 49, N4-[(1R)-1-(3-bromophenl)pethyl]-2-methyl-N6-[2-(1H-pyrazol-1-yl)ethyl]pyrido[3,4-d]pyrimidine-4,6-diamine] | > 20
8 | CC(=O)NCCNc1cc2c(NC(C)c3ccc(-c4ccccc4CN(C)C)s3)nc(C)nc2cn1 (centres unmarked) [Example 51, N-{2-[(4-{[1-(5-{2-[(dimethylamino)methyl]phenyl}thiophen-2-yl)ethyl]amino}-2-methylpyrido[3,4-d]pyrimidin-6-yl)amino]ethyl}acetamide] | > 20
9 | Cc1nc(NC(C)c2ccc(-c3ccccc3CN(C)C)s2)c2cc(Oc3cccc(O)c3)ncc2n1 (centres unmarked) [Example 52, 3-[(4-{[1-(5-{2-[(dimethylamino)methyl]phenyl}thiophen-2-yl)ethyl]amino}-2-methylpyrido[3,4-d]pyrimidin-6-yl)oxy]phenol] | > 20
10 | Cc1nc(NC(C)c2ccc(-c3ccccc3CN(C)C)s2)c2cc(NC3CCOCC3)ncc2n1 (centres unmarked) [Example 53, N4-[1-(5-{2-[(dimethylamino)methyl]phenyl}-2-thienyl)ethyl]-2-methyl-N6-(tetrahydro-2H-pyran-4-yl)pyrido[3,4-d]pyrimidine-4,6-diamine] | > 20
11 | Cc1nc(NC(C)c2ccc(-c3ccccc3CN(C)C)s2)c2cc(NCCn3cccn3)ncc2n1 (centres unmarked) [Example 54, N4-[1-(5-{2-[(dimethylamino)methyl]phenyl}-2-thienyl)ethyl]-2-methyl-N6-[2-(1H-pyrazol-1-yl)ethyl]pyrido[3,4-d]pyrimidine-4,6-diamine] | > 20
12 | Cc1nc(NC(C)c2ccc(-c3ccccc3CN(C)C)s2)c2cc(NCCn3ccnc3)ncc2n1 (centres unmarked) [Example 56, N4-[1-(5-{2-[(dimethylamino)methyl]phenyl}-2-thienyl)ethyl]-N6-[2-(1H-imidazol-1-yl)ethyl]-2-methylpyrido[3,4-d]pyrimidine-4,6-diamine] | > 20
13 | COc1cc2c(N[C@H](C)c3cccc(Br)c3)nc(C)nc2cn1 [Example 57, N-[(1R)-1-(3-bromophenyl)ethyl]-6-methoxy-2-methylpyrido[3,4-d]pyrimidin-4-amine] | > 20
14 | Cc1nc(NC(C)c2ccc(-c3ccccc3CN(C)C)s2)c2cc(Oc3cccc(C4=NCCN4C)c3)ncc2n1 (centres unmarked) [Example 58, N-[1-(5-{2-[(dimethylamino)methyl]phenyl}thiophen-2-yl)ethyl]-2-methyl-6-[3-(1-methyl-4,5-dihydro-1H-imidazol-2-yl)phenoxy]pyrido[3,4-d]pyrimidin-4-amine] | > 20
15 | CSc1cc2c(NC(C)c3ccc(-c4ccccc4CN(C)C)s3)nc(C)nc2cn1 (centres unmarked) [Example 59, N-[1-(5-{2-[(dimethylamino)methyl]phenyl}thiophen-2-yl)ethyl]-2-methyl-6-(methylsulfanyl)pyrido[3,4-d]pyrimidin-4-amine] | > 20
16 | CC(=O)NCCOc1cc2c(N[C@H](C)c3cccc(Br)c3)nc(C)nc2cn1 [Example 62, N-{2-[(4-{[(1R)-1-(3-bromophenyl)ethyl]amino}-2-methylpyrido[3,4-d]pyrimidin-6-yl)oxy]ethyl}acetamide] | > 20
17 | CCOc1cc2c(NC(C)c3ccc(-c4ccccc4CN(C)C)s3)nc(C)nc2cn1 (centres unmarked) [Example 63, N-[1-(5-{2-[(dimethylamino)methyl]phenyl}thiophen-2-yl)ethyl]-6-ethoxy-2-methylpyrido[3,4-d]pyrimidin-4-amine] | > 20
18 | COc1cc2c(NC(C)c3ccc(-c4ccccc4CN(C)C)s3)nc(C)nc2cn1 (centres unmarked) [Example 64, N-[1-(5-{2-[(dimethylamino)methyl]phenyl}thiophen-2-yl)ethyl]-6-methoxy-2-methylpyrido[3,4-d]pyrimidin-4-amine] | > 20
19 | Cc1nc(NC(C)c2ccc(-c3ccccc3CN(C)C)s2)c2cc(OC3CCS(=O)(=O)CC3)ncc2n1 (centres unmarked) [Example 67, N-[1-(5-{2-[(dimethylamino)methyl]phenyl}thiophen-2-yl)ethyl]-6-[(1,1-dioxidotetrahydro-2H-thiopyran-4-yl)oxy]-2-methylpyrido[3,4-d]pyrimidin-4-amine] | > 20
20 | Cc1nc(NC(C)c2ccc(-c3ccccc3CO)s2)c2cc(F)ncc2n1 (centres unmarked) [Example 68, [2-(5-{1-[(6-fluoro-2-methylpyrido[3,4-d]pyrimidin-4-yl)amino]ethyl}thiophen-2-yl)phenyl]methanol] | > 20
21 | Cc1nc(N[C@H](C)c2cccc(Br)c2)c2cc(OCCCN(C)C)ncc2n1 [Example 70, N-[(1R)-1-(3-bromophenyl)ethyl]-6-[3-(dimethylamino)propoxy]-2-methylpyrido[3,4-d]pyrimidin-4-amine] | > 20
22 | Cc1nc(NC(C)c2ccc(-c3ccccc3CN(C)C)s2)c2cc(N3CCC3)ncc2n1 (centres unmarked) [Example 71, 6-(azetidin-1-yl)-N-[1-(5-{2-[(dimethylamino)methyl]phenyl}thiophen-2-yl)ethyl]-2-methylpyrido[3,4-d]pyrimidin-4-amine] | > 20
23 | Cc1nc(NC(C)c2ccc(-c3ccccc3CN(C)C)s2)c2cc(OCCCN(C)C)ncc2n1 (centres unmarked) [Example 72, N-[1-(5-{2-[(dimethylamino)methyl]phenyl}thiophen-2-yl)ethyl]-6-[3-(dimethylamino)propoxy]-2-methylpyrido[3,4-d]pyrimidin-4-amine] | > 20
24 | Cc1nc(NC(C)c2ccc(-c3ccccc3CN(C)C)s2)c2cc(OCC3CC3)ncc2n1 (centres unmarked) [Example 73, 6-(cyclopropylmethoxy)-N-[1-(5-{2-[(dimethylamino)methyl]phenyl}thiophen-2-yl)ethyl]-2-methylpyrido[3,4-d]pyrimidin-4-amine] | > 20
25 | Cc1nc(NC(C)c2ccc(-c3ccccc3CN(C)C)s2)c2cc(OCCO)ncc2n1 (centres unmarked) [Example 74, 2-[(4-{[1-(5-{2-[(dimethylamino)methyl]phenyl}thiophen-2-yl)ethyl]amino}-2-methylpyrido[3,4-d]pyrimidin-6-yl)oxy]ethanol] | > 20
26 | Cc1nc(N[C@H](C)c2cccc(Br)c2)c2cc(OCC3CC3)ncc2n1 [Example 75, N-[(1R)-1-(3-bromophenyl)ethyl]-6-(cyclopropylmethoxy)-2-methylpyrido[3,4-d]pyrimidin-4-amine] | > 20
27 | Cc1nc(NC(C)c2ccc(-c3ccccc3CN(C)C)s2)c2cc(OCCCO)ncc2n1 (centres unmarked) [Example 76, 3-[(4-{[1-(5-{2-[(dimethylamino)methyl]phenyl}thiophen-2-yl)ethyl]amino}-2-methylpyrido[3,4-d]pyrimidin-6-yl)oxy]propan-1-ol] | > 20
28 | Cc1nc(NC(C)c2ccc(-c3ccccc3CN(C)C)s2)c2cc(OC3CCS(=N)(=O)CC3)ncc2n1 (centres unmarked) [Example 77, N-[1-(5-{2-[(dimethylamino)methyl]phenyl}-2-thienyl)ethyl]-6-[(1-imino-1-oxidohexahydro-1lambda4-thiopyran-4-yl)oxy]-2-methylpyrido[3,4-d]pyrimidin-4-amine] | > 20
29 | Cc1nc(N[C@H](C)c2cccc(Br)c2)c2cc(OCCN(C)C)ncc2n1 [Example 78, N-[(1R)-1-(3-bromophenyl)ethyl]-6-[2-(dimethylamino)ethoxy]-2-methylpyrido[3,4-d]pyrimidin-4-amine] | > 20
